Measured values published in article PMC3152585 (Dental materials : official publication of the Academy of …, 2011).
≈ marks a conversion by molar mass, not a printed value. Where “and” joins values, the source holds several entries; their conditions need not be identical. Equal values may be shown once. Marks after values point to notes of the source that are not given here. Each block holds one compound with its values, some of them ahead of it.

Assays:
[1] = tested on: matrix-bound endogenous MMPs of dentin; test: Loss of dry mass of demineralized dentin beams over 30 days; assay type: biochemical, human; details: for Loss of dry mass (%): mean ± SEM, n=10, buffer control -21.02; for % Inhibition (loss of dry mass): vs buffer control
[2] = biological target: recombinant human MMP-9 (rhMMP-9) (Homo sapiens, UniProt P14780); test: Sensolyte Generic MMP colorimetric assay with soluble rhMMP-9; details: for IC50 (moles/L) for rhMMP-9: from regression of percent inhibition vs alcohol concentration; for IC50 (moles/L) for rhMMP-9 / % Inhibition of soluble rhMMP-9: mean ± SEM, n=5; for % Inhibition of soluble rhMMP-9: alcohol 4.28 M
[3] = tested on: matrix-bound endogenous MMPs of dentin; test: Solubilization of collagen peptides; assay type: biochemical, human; details: 30 days, vs buffer control
MMP-2 = details: 5 wt% monomeric HEMA, PAGE gels; cited from earlier work
physchem = details: aqueous buffer
[4] = read-out: % Inhibition of soluble rhMMP-9

Sequence of recombinant human MMP-9 (rhMMP-9) (P14780 107-707 limits assumed): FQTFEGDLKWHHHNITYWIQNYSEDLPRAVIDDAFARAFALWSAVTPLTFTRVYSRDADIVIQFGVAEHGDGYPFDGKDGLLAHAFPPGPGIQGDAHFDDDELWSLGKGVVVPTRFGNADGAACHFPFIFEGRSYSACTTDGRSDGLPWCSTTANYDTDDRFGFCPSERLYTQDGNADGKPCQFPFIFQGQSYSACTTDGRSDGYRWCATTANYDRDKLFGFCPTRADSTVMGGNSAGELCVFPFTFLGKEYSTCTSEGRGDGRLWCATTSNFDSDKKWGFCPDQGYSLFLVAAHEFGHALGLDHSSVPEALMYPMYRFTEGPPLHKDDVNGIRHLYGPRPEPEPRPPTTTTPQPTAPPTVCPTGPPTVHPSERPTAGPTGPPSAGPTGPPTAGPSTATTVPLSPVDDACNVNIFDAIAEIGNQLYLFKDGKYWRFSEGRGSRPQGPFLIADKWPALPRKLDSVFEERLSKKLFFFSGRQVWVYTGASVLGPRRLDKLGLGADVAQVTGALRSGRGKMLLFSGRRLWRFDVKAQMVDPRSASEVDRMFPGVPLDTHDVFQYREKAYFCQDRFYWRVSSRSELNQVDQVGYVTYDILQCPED

Compound: OCCCO [1,3-propanediol]
Loss of dry mass (%) ([1]; alcohol 4.28 M): -3.22 ± 0.31% (10)^A

inhibition at 170000 µM [2, 4]: 28.3 ± 0.4%
Compound: CCCCCCO [1-hexanol]

IC50 (moles/L) for rhMMP-9 [2]: 0.3 ± 0.22%^b moles/L | inhibition at 170000 µM [2, 4]: 25.4 ± 1.21%
Compound: CCCCCCCCO [1-octanol]

inhibition at 860000 µM [2, 4]: 28.5 ± 0.54%
Compound: CCCCCO [1-pentanol]

% Inhibition of soluble rhMMP-9 [2]: 79.7 ± 0.18%^F | IC50 (moles/L) for rhMMP-9 [2]: 2.7 moles/L and 2.7 ± 0.13%^d moles/L
Compound: CCCO [1-propanol]
% Inhibition (loss of dry mass) ([1]; alcohol 4.28 M): 80.2% | % Inhibition (solubilization of HYP) ([3]; alcohol 4.28 M): 78.2%

% Inhibition of soluble rhMMP-9 [2]: 78.7 ± 0.94%^F | IC50 (moles/L) for rhMMP-9 [2]: 0.5 ± 0.04%^b moles/L
Compound: CCC(C)O (stereo not drawn) [2-butanol]
% Inhibition (loss of dry mass) ([1]; alcohol […]): 80.2% | % Inhibition (solubilization of HYP) ([3]; alcohol […]): 82.9%

IC50 (moles/L) for rhMMP-9 [2]: 3.0 ± 0.18%^d moles/L | inhibition at 170000 µM [2, 4]: 13.7 ± 2.33%
Compound: CCCCCC(C)O (stereo not drawn) [2-heptanol]

IC50 (moles/L) for rhMMP-9 [2]: 1.6 ± 0.09%^c moles/L | inhibition at 170000 µM [2, 4]: 13.2 ± 0.67%
Compound: CCCCC(C)O (stereo not drawn) [2-hexanol]

IC50 (moles/L) for rhMMP-9 [2]: 2.7 ± 0.18%^d moles/L | inhibition at 170000 µM [2, 4]: 21.5 ± 0.63%
Compound: CCCCCCC(C)O (stereo not drawn) [2-octanol]

% Inhibition of soluble rhMMP-9 [2]: 52.7 ± 0.18%^D | IC50 (moles/L) for rhMMP-9 [2]: 4.4 ± 0.13%^e moles/L
Compound: CC(C)O [2-propanol]

Compound: CCCCC(O)CC (stereo not drawn) [3-heptanol]
IC50 (moles/L) for rhMMP-9 [2]: 0.5 ± 0.04%^b moles/L | inhibition at 170000 µM [2, 4]: 17.1 ± 0.54%

IC50 (moles/L) for rhMMP-9 [2]: 0.4 ± 0.04%^b moles/L | inhibition at 170000 µM [2, 4]: 35.1 ± 1.16%
Compound: CCCC(O)CC (stereo not drawn) [3-hexanol]

IC50 (moles/L) for rhMMP-9 [2]: 1.1 ± 0.04%^c moles/L | inhibition at 170000 µM [2, 4]: 17.7 ± 0.27%
Compound: CCCCC(O)CCC (stereo not drawn) [4-octanol]

Compound: C=C(C)C(=O)OCCO [HEMA, 2-hydroxyethylmethacrylate]
% Inhibition (loss of dry mass) ([1]; 0.86 M): 80.7% | % Inhibition (loss of dry mass) ([1]; […]): 79.1% | % Inhibition (loss of dry mass) ([1]; alcohol 4.28 M): 80.8% | % Inhibition (solubilization of HYP) ([3]; 0.86 M): 88.1% | % Inhibition (solubilization of HYP) ([3]; […]): 83.6% | % Inhibition (solubilization of HYP) ([3]; alcohol 4.28 M): 85.6% | IC50 [2]: 100 ± 90 mM | Inhibition of rhMMP-9 ([2]; 2.2 vol% HEMA, data not shown): 98% | Inhibition of MMP-9 relative to the same concentration of ethanol ([2]; compared to ethanol): nineteen times more | Inhibition of MMP-2 (MMP-2): about 80% | solubility (physchem): 4280 mM (≈ 557 mg/mL)

% Inhibition of soluble rhMMP-9 [2]: 14.3 ± 2.06%^A | IC50 (moles/L) for rhMMP-9 [2]: 19.6 ± 0.36%^a moles/L
Compound: CCO [ethanol]

Compound: CC(C)(C)O [tert-butanol]
Loss of dry mass (%) ([1]; alcohol 4.28 M): -3.52 ± 0.28% (10)^A | % Inhibition (loss of dry mass) ([1]; alcohol 4.28 M): 83.3%
